According to patent publication US20080058330A1, “Compounds and Combinations Thereof for Inhibiting Beta-Amyloid Production and Methods of Use Thereof” (Roskamp Research LLC, priority 2006, published 2008):

How the values were obtained:
7W WT APP751 CHO cells [1] = assay: Screening of dihydropyridine compounds of Table 2, Aβ1-40 and Aβ1-42 ELISA (Example 5); format: cell-based, Chinese hamster; conditions: for concentration of Aβ1-40 or Aβ1-42 compared to control: 3, 10, 30 and 100 μM, 24 hours (FIGS. 22A, 22B, 23A, 23B); for concentration of Aβ1-40 compared to control: 3 and 10 μM, 24 hours (FIG. 24)
Method: (§1) Chinese hamster ovary (CHO) cells, stably transfected with human APP751 (7W WT APP751 CHO cells) were used. See, e.g., Koo and Squazzo, J. Biol. Chem., Vol. 269, Issue 26, 17386-17389, July, 1994. The cells were maintained in DMEM medium supplemented with 10% fetal bovine serum and IX mixture of penicillin/streptomycin/fungizone/glutamine mixture (Cambrex, Md.) geneticin as selecting agent in 75 cm^2 cell culture flasks.
(§2) The 7W WT APP751 CHO cells were plated in 24-well cell culture plates in quadruplicate, containing 1 ml of culture medium, and treated with various calcium channel blocker compounds for 4 hours, 24 hours or 48 hours at 37° C. and 5% CO2. All test compounds were diluted in dimethyl sulfoxide (DMSO) before being added to the cultured confluent 7W WT APP751 CHO cells. The culture medium was collected and diluted 5-fold for the 4 hours assay and 50-fold for the 24 hour assay before being assayed by ELISAs for Aβ1-40 and Aβ1-42, respectively. Concentrations of Aβ1-40 and Aβ1-42, expressed in pg/ml, were determined using commercially available ELISAs (Biosource, Calif.) in a colorimetric assay using labeled antibodies detected spectrophotometrically.
The screening of dihydropyridine compounds was conducted according to the procedure described in Example 1. Each compound was added to confluent cells to a final concentration of 3, 10, 30 or 100 μM and tested. Each of these compounds was added to confluent cells to a final concentration of 3 μM (noted as “C” in FIG. 24) or 10 μM (noted as “B” in FIG. 24).

Tg APPsw mice = Tg APPsw mice given the NSAID; correlating with decreased microglial activation; cited from earlier work
7W WT APP751 CHO cells [2] = assay: Measurement of Aβ1-40 and Aβ1-42 by ELISA after treatment with calcium channel blockers (Example 1); format: cell-based, Chinese hamster
Method: as §1
as §2, with “All test compounds were diluted in dimethyl sulfoxide (DMSO) before being added to the cultured confluent 7W WT APP751 CHO cells.” left out

[3] = 30 μM, cells plated at low density, 24 hours (FIG. 1C)
[4] = 30 μM, cells plated at low density, 48 hours (FIG. 1D)

With `CC1=C(C(=O)OC(C)(C)C)C(c2ccccc2[N+](=O)[O-])C(C(=O)OC(C)(C)C)=C(C)N1` [Example 2-33, Di-tert-butyl 1,4-dihydro-2,6-dimethyl-4-(2-nitrophenyl)pyridine-3,5-dicarboxylate] the “concentration of Aβ1-40 or Aβ1-42 compared to control” value (7W WT APP751 CHO cells [1]) was “decreased”.
For `CCOC(=O)C1=C(C)NC(C)=C(C(=O)OCC)C1c1ccc(Br)cc1F` [Example 3-33], the “concentration of Aβ1-40 compared to control” value (7W WT APP751 CHO cells [1]) was “decreased”.
For `CC(C)Cc1ccc(C(C)C(=O)O)cc1` (centres unmarked) [ibuprofen], the “β-amyloid deposits, astrocytosis, and dystrophic neurites” value (Tg APPsw mice) is listed as “reduction”.
In the case of `COCCOC(=O)C1=C(C)NC(C)=C(C(=O)OCCOC)C1c1ccc(Br)cc1` [Example 3-38, Bis(2-methoxyethyl) 4-(4-bromophenyl)-1,4-dihydro-2,6-dimethylpyridine-3,5-dicarboxylate], the “concentration of Aβ1-40 compared to control” value (7W WT APP751 CHO cells [1]) is reported as “decreased”.
With `CCOC(=O)C1=C(C)NC(C)=C(C(=O)OCC)C1c1cccc(F)c1F` [Example 3-22] the “concentration of Aβ1-40 compared to control” value (7W WT APP751 CHO cells [1]) was “decreased”.
In the case of `CCOC(=O)C1=C(C)NC(C)=C(C(=O)OCC)C1c1ccccc1[N+](=O)[O-]` [Example 2-29, Diethyl 1,4-dihydro-2,6-dimethyl-4-(2-nitrophenyl)pyridine-3,5-dicarboxylate], the “concentration of Aβ1-40 or Aβ1-42 compared to control” value (7W WT APP751 CHO cells [1]) is reported as “decreased”.
In the case of `CCOC(=O)C1=C(C)NC(C)=C(C(=O)OCC)C1c1ccccc1Br` [Example 2-23, Diethyl 4-(2-bromophenyl)-1,4-dihydro-2,6-dimethylpyridine-3,5-dicarboxylate], the “concentration of Aβ1-40 or Aβ1-42 compared to control” value (7W WT APP751 CHO cells [1]) is reported as “decreased”.
In the case of `COCCOC(=O)C1=C(C)NC(C)=C(C(=O)OCCOC)C1c1cccc(Br)c1` [Example 3-37], the “concentration of Aβ1-40 compared to control” value (7W WT APP751 CHO cells [1]) is reported as “decreased”.
With `COC(=O)C1=C(C#N)NC(C)=C(C(=O)OC(C)C)C1c1cccc([N+](=O)[O-])c1` (centres unmarked) [nilvadipine] the “concentration of Aβ1-40 compared to controls” value (7W WT APP751 CHO cells [2]; 30 μM (FIG. 3)) was “significantly decreased”, the “concentration of total β-amyloid compared to controls” value (7W WT APP751 CHO cells [2]; 30 μM (FIG. 3)) was “significantly decreased” and the “concentration of Aβ1-40 compared to controls” value (7W WT APP751 CHO cells [2]; 30 μM, 24 hours (FIG. 1B)) was “significantly decreased”. The “concentration of Aβ1-40 compared to controls” value (7W WT APP751 CHO cells [2]; [3]) was “significantly decreased” and the “concentration of Aβ1-40 compared to controls” value (7W WT APP751 CHO cells [2]; [4]) was “significantly decreased”.
With `CC1=C(C(=O)OC(C)(C)C)C(c2ccccc2Br)C(C(=O)OC(C)(C)C)=C(C)N1` [Example 2-32, Di-tert-butyl 4-(2-bromophenyl)-1,4-dihydro-2,6-dimethylpyridine-3,5-dicarboxylate] the “concentration of Aβ1-40 or Aβ1-42 compared to control” value (7W WT APP751 CHO cells [1]) was “decreased”.
In the case of `COc1ccc(CCCOC(Cn2ccnc2)c2ccc(OC)cc2)cc1.Cl` (stereo not drawn) [SKF 96365, 1-[beta-[3-(4-methoxyphenyl)propoxy]-4-methoxyphenethyl]-1H-imidazole hydrochloride], the “concentration of Aβ1-40 compared to controls” value (7W WT APP751 CHO cells [2]; 15 μM, 24 hours (FIG. 1B)) is reported as “significantly decreased”, the “concentration of Aβ1-40 compared to controls” value (7W WT APP751 CHO cells [2]; 30 μM (FIG. 2)) is reported as “significantly decreased” and the “concentration of Aβ1-42 compared to controls” value (7W WT APP751 CHO cells [2]; 30 μM (FIG. 2)) is reported as “significantly decreased”. The “concentration of total β-amyloid compared to controls” value (7W WT APP751 CHO cells [2]; 30 μM (FIG. 2)) was “significantly decreased” and the “concentration of Aβ1-40 compared to controls” value (7W WT APP751 CHO cells [2]; 30 μM, 24 hours (FIG. 1B)) was “significantly decreased”.
In the case of `CC1=C(C(=O)OC(C)(C)C)C(c2cccc(F)c2F)C(C(=O)OC(C)(C)C)=C(C)N1` [Example 3-23], the “concentration of Aβ1-40 compared to control” value (7W WT APP751 CHO cells [1]) is reported as “decreased”.
With `CC1=C(C(=O)OC(C)(C)C)C(c2ccccc2F)C(C(=O)OC(C)(C)C)=C(C)N1` [Example 2-28, Di-tert-butyl 4-(2-fluorophenyl)-1,4-dihydro-2,6-dimethylpyridine-3,5-dicarboxylate] the “concentration of Aβ1-40 or Aβ1-42 compared to control” value (7W WT APP751 CHO cells [1]) was “decreased”.
In the case of `COCCOC(=O)C1=C(C)NC(C)=C(C(=O)OCCOC)C1c1ccccc1Cl` [Example 2-19], the “concentration of Aβ1-40 or Aβ1-42 compared to control” value (7W WT APP751 CHO cells [1]) is reported as “decreased”.
In the case of `COc1ccc2cc1Oc1ccc(cc1)C[C@H]1c3cc(c(OC)cc3CCN1C)Oc1c(OC)c(OC)cc3c1[C@H](C2)N(C)CC3` [tetrandine, tetrandrine], the “concentration of Aβ1-40 compared to controls” value (7W WT APP751 CHO cells [2]; 5 μM (FIG. 4)) is reported as “significantly decreased”, the “concentration of total β-amyloid compared to controls” value (7W WT APP751 CHO cells [2]; 5 μM (FIG. 4)) is reported as “significantly decreased” and the “concentration of Aβ1-40 compared to controls” value (7W WT APP751 CHO cells [2]; 10 μM (FIG. 4)) is reported as “significantly decreased”. For the same compound, the “concentration of total β-amyloid compared to controls” value (7W WT APP751 CHO cells [2]; 10 μM (FIG. 4)) was “significantly decreased”, the “concentration of Aβ1-40 compared to controls” value (7W WT APP751 CHO cells [2]; 20 μM (FIG. 4)) was “significantly decreased” and the “concentration of total β-amyloid compared to controls” value (7W WT APP751 CHO cells [2]; 20 μM (FIG. 4)) was “significantly decreased”. The “concentration of Aβ1-40 compared to controls” value (7W WT APP751 CHO cells [2]; 30 μM (FIG. 4)) was “significantly decreased” and the “concentration of total β-amyloid compared to controls” value (7W WT APP751 CHO cells [2]; 30 μM (FIG. 4)) was “significantly decreased”.
In the case of `CC1=C(C(=O)OC(C)(C)C)C(c2cc(Br)ccc2F)C(C(=O)OC(C)(C)C)=C(C)N1` [Example 3-42], the “concentration of Aβ1-40 compared to control” value (7W WT APP751 CHO cells [1]) is reported as “decreased”.
For `CCOC(=O)C1=C(C)NC(C)=C(C(=O)OCC)C1c1ccccc1F` [Example 2-27, Diethyl 4-(2-fluorophenyl)-1,4-dihydro-2,6-dimethylpyridine-3,5-dicarboxylate], the “concentration of Aβ1-40 or Aβ1-42 compared to control” value (7W WT APP751 CHO cells [1]) was “decreased” and the melting point was 151 to 152.5 °C.
In the case of `CC1=C(C(=O)OC(C)(C)C)C(c2ccc(Br)cc2F)C(C(=O)OC(C)(C)C)=C(C)N1` [Example 3-34, Di-tert-butyl 4-(4-bromo-2-fluorophenyl)-1,4-dihydro-2,6-dimethylpyridine-3,5-dicarboxylate], the “concentration of Aβ1-40 compared to control” value (7W WT APP751 CHO cells [1]) is reported as “decreased”.
For `CCOC(=O)C1=C(C)NC(C)=C(C(=O)OC)C1c1cccc([N+](=O)[O-])c1` (centres unmarked) [nitrendipine], the “concentration of Aβ1-40 compared to controls” value (7W WT APP751 CHO cells [2]; 30 μM (FIG. 3)) was “significantly decreased”, the “concentration of total β-amyloid compared to controls” value (7W WT APP751 CHO cells [2]; 30 μM (FIG. 3)) was “significantly decreased” and the “concentration of Aβ1-40 compared to controls” value (7W WT APP751 CHO cells [2]; [3]) was “significantly decreased”. The “concentration of Aβ1-40 compared to controls” value (7W WT APP751 CHO cells [2]; [4]) was “significantly decreased”.
In the case of `CCOC(=O)C1=C(C)NC(C)=C(C(=O)OCC)C1c1cc(Br)ccc1F` [Example 3-41, Diethyl 4-(5-bromo-2-fluorophenyl)-1,4-dihydro-2,6-dimethylpyridine-3,5-dicarboxylate], the “concentration of Aβ1-40 compared to control” value (7W WT APP751 CHO cells [1]) is reported as “decreased”.
For `Clc1ccc(C(c2ccc(Cl)cc2)[n+]2ccn(CC(OCc3ccc(Cl)cc3Cl)c3ccc(Cl)cc3Cl)c2)cc1.[Cl-]` (centres unmarked) [Example R24571, 1-[bis(p-chlorophenyl)methyl]-3-[2-(2,4-di-chloro-p-(2,4-dichlorobenzyl-oxy)phenethyl)]-imidazolium chloride], the “concentration of Aβ1-40 compared to controls” value (7W WT APP751 CHO cells [2]; 5 μM (FIG. 4)) was “significantly decreased” and the “concentration of total β-amyloid compared to controls” value (7W WT APP751 CHO cells [2]; 5 μM (FIG. 4)) was “significantly decreased”.
